Structures can show the parent of a compound that is named as a salt.
Test: Solubility of (PGMH)2SO4 in water as a function of temperature (HPLC of filtered supernatant)
Format: physicochemical
Settings: filtrate by HPLC
Source text: In the preparation of (PGMH)2SO4 as described in Example 2 separation of the organic phase at pH=4.2 is done while (PGMH)2SO4 is supersaturated. At some point in time, crystallization may start before the organic layer is separated from the aqueous phase. In order to design a process that will avoid crystallization of (PGMH)2SO4 in the presence of organic solvent, and controlled crystallization after separation of the organic phase, solubility of (PGMH)2SO4 as a function of temperature was investigated. The hemi sulfuric acid salt of D-phenylglycine methyl ester (1 g), obtained as described in Example 2 was mixed with water (2 g) at 20° C. and the solid material dissolved. Additional hemi sulfuric acid salt of D-phenylglycine methyl ester (1 g) was added and the mixture was agitated at 20° C. for 25 minutes. Not all solid was dissolved. An aliquot of approximately 0.5 mL of supernatant was filtered, and in the filtrate the concentration of hemi sulfuric acid salt of D-phenylglycine methyl ester was determined by HPLC. The rest of the mixture was stirred at 3° C. Water (2 mL) was added to allow mixing. […] An aliquot of approximately 0.5 mL of supernatant was filtered and in the filtrate the concentration of hemi sulfuric acid salt of D-phenylglycine methyl ester was determined by HPLC.

COC(=O)[C@H](N)c1ccccc1 [hemi sulfuric acid salt of D-phenylglycine methyl ester]
Solubility in water: hemi sulfuric acid salt of D-phenylglycine methyl ester (g)/kg of solution (T 3 °C, agitated 30 minutes): 268 g/kg of solution
Solubility in water: hemi sulfuric acid salt of D-phenylglycine methyl ester (g)/kg of solution (T 20 °C, agitated 25 minutes): 478 g/kg of solution

Source: patent US20170298406A1, “SALT OF PHENYLGLYCINE METHYL ESTER” (DSM Sinochem Pharmaceuticals Netherlands B.V., priority 2014, published 2017)
